The nature of data set [1]: TGA weight loss / thermal stability. It counts as physicochemical. The conditions noted are these: for thermal stability: comparison of TGA/DSC patterns; for TGA weight loss: heated to 150° C. From the text: TGA and DSC patterns were collected on a TA Q5000 thermogravimetric analyzer and a TA Discovery 2500 differential scanning calorimeter, respectively.
TGA results were collected on a TA Discovery 5500 thermogravimetric analyzer, and DSC results were collected on a TA Discovery 2500 differential scanning calorimeter.

Data set [2] is described as follows: Assessment of dynamic solubility. It counts as physicochemical. The settings on record: for pH of filtrate: 37° C.
Data set [3] in a line: Assessment of 24-h solubility in pH buffers. The settings on record: room temperature; for FC: crystal transfer: Buffer (pH = 7.4); for solubility at 24 h: thermodynamic from solid, read-out: S: solubility, calculated as free form. It counts as physicochemical.
The text on data set [4]:
DVS isotherms were collected on an SMS (Surface Measurement Systems) DVS Intrinsic.

How the values of data set [5] were obtained:
A method for testing the density and the tapped density included: (1) a certain mass of to-be-assessed sample was placed into a 5 mL measuring cylinder, and the volume at this moment was recorded. The bulk density was calculated by dividing the mass of the sample by the volume at this moment. (2) The measuring cylinder was slightly tapped 200 times, the final volume was recorded, and the tapped density was calculated by dividing the mass of the sample by the final volume. (3) Three parallel tests were conducted. A method for testing the angle of repose included: (1) a funnel was fixed vertically to a bottom surface, and the material was slowly placed into the funnel. (2) A well-proportioned cone of the material was formed on the bottom surface. The height and bottom surface diameter of the cone were measured. (3) Three parallel tests were conducted.
This is another data set of the same source.

Data set [6] in a line: Pharmacokinetics of hydrochloride crystal form A in Beagle dogs. It counts as in vivo. The conditions noted are these: single i.g. 6 mg/kg. The method, then:
In this experiment, three male Beagle dogs were randomly selected for administration. All the animals were fasted for at least 12 h before administration and were fed again 4 h after administration. […] The blood samples from the animals were collected through the jugular vein, with a blood sample volume of 0.5 mL/time. All collected whole blood samples were placed in centrifuge tubes containing EDTA-K2, and the centrifuge tubes were turned upside down to allow the anticoagulant and blood to be fully mixed. All the blood samples were placed on wet ice before centrifugation and centrifuged at 1500 g for 10 min to separate plasma. The plasma samples were transferred to sample tubes and stored at -40° C. to […] until analysis. The drug concentration in the plasma of each Beagle dog was detected by an LC-MS/MS method.

The source holds these as a separate data set.
The mark [7] stands for this setting: listed as hydrochloride crystal form A.
Setting [8] is: dog, plasma, po, male Beagle dogs, mean.
The mark [9] stands for this setting: listed as phosphate crystal form A.

One may read the solubility as how much of the substance goes into solution per volume. A word on the AUC(0-inf): it is total exposure, with the tail of the curve extrapolated. Lower therefore signals less exposure. Usually AUC(0-t) stands for the area under the concentration-time curve up to a stated or last time point. A high value points to high exposure. As a reminder, the Cmax is the highest concentration seen after dosing. Broadly, the Tmax is the time from dosing to the highest level. The term half-life denotes how long it takes for the measured level to halve. Higher therefore signals slow decline.

Structures can show the parent of a compound that is named as a salt. Where two headings read alike, the source gives them in different places.

`CC[S@@](=N)(=O)C[C@H]1CC[C@H](N(C)c2ncnc3[nH]ccc23)CC1` [Hydrochloride crystal form A]: the thermal stability entry in data set [1] is recorded as “high”. Moreover, the TGA weight loss in data set [1] (listed as Hydrochloride Crystal Form A) and in data set [1] (setting [7]) was 0.53% throughout. For the same compound, the pH of filtrate in data set [2] (FaSSIF, 1 h) came out at 5.0; in data set [2] (FaSSIF, 4 h), 5.1; in data set [2] (FeSSIF, 2 h), 4.9; in data set [2] (FeSSIF, 4 h), 4.9; in data set [2] (H2O, 1 h) it was 4.0; in data set [2] (H2O, 2 h), 4.0. The pH of filtrate amounted to 4.0 in data set [2] (H2O, 4 h); 2.9 in data set [2] (SGF, 1 h); 3.0 in data set [2] (SGF, 4 h). Besides, the solubility in data set [2] (H2O, SGF, FaSSIF and FeSSIF, 37 °C, water, thermodynamic from solid, in H2O, fully soluble) was over 9 mg/mL. The “FC: crystal transfer” value in data set [3] was “Yes”; in data set [3] (setting [7]), “transformed into the free crystal form A”. Besides, the solubility at 24 h is over 9.2 mg/mL in data set [3] (buffer pH 2.0, pH 2, aqueous buffer, Buffer (pH = 2.0)) and over 9.2 mg/mL in data set [3] (buffer pH 4.5, pH 4.5, aqueous buffer, Buffer (pH = 4.5)). Moreover, in data set [4] (25° C./80% RH), the hygroscopicity result is on record as “slight hygroscopicity”. In addition, the “Crystal transformation after DVS” value in data set [4] (XRPD before and after DVS) was “No”. In addition, in data set [5] (conclusion from Carr index and angle of repose), the flowability result is listed as “high flowability”. The Bulk density in data set [5] (single tests 1 to 3) came out at 0.14 g/mL. In data set [5] (three parallel tests), the Average bulk density stood at 0.14 g/mL. Further, the Average tapped density in data set [5] (three parallel tests, tapped 200 times) was determined as 0.24 g/mL. In data set [6] (setting [8]), the AUC(0-inf) was 32.1 µg·h/mL. This compound had an AUC(0-t) in data set [6] (setting [8]) of 31.7 µg·h/mL. For the same compound, in data set [6] (setting [8]), the highest level (Cmax) was 5.29 µg/mL. The Tmax in data set [6] (setting [8]) came out at 0.417 h. Besides, the half-life in data set [6] (setting [8]) was 3.59 h. Moreover, the MRT inf in data set [6] (dog, plasma, po, male Beagle dogs, mean, read-out: MRT0-inf) amounted to 5.11 h. Besides, the MRT last in data set [6] (dog, plasma, po, male Beagle dogs, mean, read-out: MRT0-t) worked out at 4.84 h. Also, the clinical observation result in data set [6] is “no obvious abnormalities were found”. The “UPLC peak Area, RRT 1.62” value reads like this: (25° C./60% RH/4 weeks) 0.05%; (40° C./75% RH/4 weeks) 0.05%; (80° C./1 d) 0.05%; (Starting) 0.05%. In addition, the “UPLC peak Area, RRT 2.10” value is recorded as 0.07% (25° C./60% RH/4 weeks), 0.07% (40° C./75% RH/4 weeks), 0.08% (80° C./1 d) and 0.08% (Starting). Besides, the “UPLC peak Area, RRT 2.19” value (25° C./60% RH/4 weeks) is listed as under 0.05%; the “UPLC peak Area, RRT 2.19” value (40° C./75% RH/4 weeks) is under 0.05%; the “UPLC peak Area, RRT 2.19” value (80° C./1 d) is under 0.05%; the “UPLC peak Area, RRT 2.19” value (Starting) is on record as 0.06%. Besides, the “Crystal form Transform” value is “No” (25° C./60% RH/4 weeks, open); “No” (40° C./75% RH/4 weeks, open); “No” (80° C./1 d, closed). The “UPLC peak Area, RRT 1.00” value by setting is: (40° C./75% RH/4 weeks) 99.88%; (Starting) 99.82%. The Purity came to 99.88 area % (40° C./75% RH/4 weeks, open) and 99.87 area % (80° C./1 d, closed). The same compound gave a Starting purity (before storage, UPLC) of 99.82 area %.
For the compound `CC[S@@](=N)(=O)C[C@H]1CC[C@H](N(C)c2ncnc3[nH]ccc23)CC1` [Phosphate crystal form A], the thermal stability entry in data set [1] (setting [9]) is given as “slightly poor thermal stability”. For the same compound, the TGA weight loss in data set [1] (listed as Phosphate Crystal Form A) and in data set [1] (setting [9]) was 2.82% throughout.
On to `CC[S@@](=N)(=O)C[C@H]1CC[C@H](N(C)c2ncnc3[nH]ccc23)CC1` [Sulfate crystal form A], for which the thermal stability entry in data set [1] (listed as sulfate crystal form A) is reported as “poor thermal stability”. Also, the “TGA stepwise weight loss” value in data set [1] (heated to 100° C.) was 14.83%.

(Values after patent US20260224573A1, “CRYSTAL FORM OF COMPOUND, AND PREPARATION METHOD AND USE THEREOF” (FELICAMED BIOTECHNOLOGY CO., LTD., priority 2023, published 2026).)
